Columns and labels:
Assay type in all cases: in vivo
[1] = system: dandelion (Taraxacum officinale); experiment: Example 11 field test, dandelion in lawn
Description: (§1) Killex® (Green Cross, Ontario, Canada) is a commonly used selective lawn herbicide and was included in several field tests as a standard. Killex contains 2,4-D (9.5%), mecoprop (5%) and dicamba (0.9%). The product was diluted 6 ml into 1 L of water solution and applied at rate of 200 ml/m^2, as per label instructions.
(§2) This test investigated the effect of FeHEDTA and a mixture of FeEDDS and FeMGDA on daisy (Bellis perennis), dandelion (Taraxacum officinale) and a turf bentgrass (Agrostis sp.). The chelating agents were used at one and a half times the molar amount of iron. The FeHEDTA solutions contained 0.2% iron (35.8 mM). The commercially prepared FeHEDTA product from the Monterey Chemical Company (CA, USA) was used as a standard. The (FeEDDS+FeMGDA) solutions contained 0.4% iron (71.6 mM) and the same molar amount of EDDS and MGDA. The solutions were made from NaEDDS (Octaquest E30, Octel) and NaMGDA (Trilon M liquid, BASF, Germany). Ammonium sulfate was added at a concentration of 1%. Killex (Solaris ON, Canada) was diluted and applied as per label instructions of 6 ml/L applied at 200 ml/m^2.
(§3) The daisy (0.25 m^2) and dandelion (0.5 m^2) test plots were in different areas of the bentgrass field. The dandelions were large, averaging 30 cm in diameter. The daisy patches were between 10 and 20 cm in diameter. The plants were sprayed weekly 4 times.

daisy (Bellis perennis) = experiment: Example 11 field test, daisy in lawn
Description: as §1, §2, §3

[2] = system: turf bentgrass (Agrostis sp.); experiment: Example 11 field test, blackening of bentgrass leaf tips
Description: The product was diluted 6 ml into 1 L of water solution and applied at rate of 200 ml/m^2, as per label instructions.
as §2, with “The FeHEDTA solutions contained 0.2% iron (35.8 mM).” left out, “The (FeEDDS+FeMGDA) solutions contained 0.4% iron (71.6 mM) and the same molar amount of EDDS and MGDA.” left out
as §3

[3] = system: dandelion (Taraxacum officinale); experiment: Example 12 FeHEDTA field test, dandelion; settings: for Survival of Dandelion Plants (%): day 7/day 0
Description: This test evaluated FeHEDTA with 0.15% and 0.2% Fe for controlling the chickweed scarlet pimpernel (Anagallis arvensis) and dandelion (Taraxacum officinale). The solution contained 1.3 times the molar amount of chelating agent as iron. Field areas of well established chickweed and dandelion (0.5 m^2) were sprayed at a rate of 100 ml/m^2.

grass = experiment: Example 13 field test, grass
Description: as §1
This test evaluated FeEDDS (0.4% Fe^+3) and FeHEDTA (0.2% Fe^+3) for controlling the weed hairy cat's ear (Hypochoeris radicata), also known as “false dandelion”, grown in areas of mixed grass and Hypochoeris. The iron solutions were sprayed at a rate of 100 ml/m^2 to 1.0 m^2 plots. The iron treatments were resprayed after 7 and 14 days. Killex (Solaris ON, Canada) was diluted and applied once as per label instructions of 6 ml /L applied at 200 ml/m^2.

broadleaf plantain = experiment: Example 19 FeHEDTA with Killex at reduced rates, broadleaf plantain; settings: Killex ® 0%, 7 days after application
Description: Plants were fertilized with an all purpose water-soluble fertilizer mix of 20-20-20 (N-P-K; Plant-Prod®) as needed. All broadleaf weeds were grown individually in a 2¼-inch pot until they were a suitable size for herbicide tests (actual weed size is reported in examples below). Perennial ryegrass was also grown in 2¼-inch pots, however many grass seeds were sown in the pot to simulate a small section of turf. Grass plants were continually trimmed to a height of 4 cm, simulating that of a homeowner's lawn. For field tests, plots ¼ m^2 in size were marked out in areas containing the targeted broadleaf weed species growing in turf grass. Plots were continually mowed to simulate a homeowner's lawn. […] In all of the examples, the amounts of the various herbicide components are identified as a percent on a weight basis.
Killex® (Scotts Canada, Ltd., Ontario, Canada) is a commonly used selective lawn herbicide and was used as the commercial herbicide for herbicide combinations. The labeled dilution and application rates for Killex® are 6 ml into 1 L of solution (0.6%) applied at 200 ml/m^2.
All visual plant damage assessments were made using a quantitative rating scale; percent control relative to the untreated check (0=no effect; 100=plant death).
Materials and Methods: This trial was conducted in the greenhouse. Ten broadleaf plantain plants and 5 pots of perennial ryegrass were selected for each treatment. Herbicide solutions were prepared using deionized water. The treatments were applied using a hand-trigger sprayer at 200 ml/m^2. All treatments were applied once. Phytotoxicity (%) was assessed 7 days after application (A7).

**Q.** What does the source list for O=C([O-])CN(CCO)CCN(CC(=O)[O-])CC(=O)[O-].[Fe+3] [FeHEDTA]?
**A.** Plot Area Covered by Dandelion Plants (%) ([1]; day 0 (start of test)): 80%; Dandelion Necrosis (%) ([1]; day 2): 95%; Dandelion Necrosis (%) ([1]; day 9): 98%; Plot Area Covered by Dandelion Plants (%) ([1]; day 13, sprayed weekly 4 times): 5%; Dandelion Necrosis (%) ([1]; day 16): 97%; Plot Area Covered by Dandelion Plants (%) ([1]; day 21): 10%; Dandelion Necrosis (%) ([1]; day 23): 97%; Plot Area Covered by Dandelion Plants (%) ([1]; day 26): 8%; Plot Area Covered by Daisy Plants (%) (daisy (Bellis perennis); day 0 (start of test)): 60%; Daisy Necrosis (%) (daisy (Bellis perennis); day 2): 20%; Daisy Necrosis (%) (daisy (Bellis perennis); day 10): 95%; Plot Area Covered by Daisy Plants (%) (daisy (Bellis perennis); day 13, sprayed weekly 4 times): 1%; Daisy Necrosis (%) (daisy (Bellis perennis); day 16): 98%; Plot Area Covered by Daisy Plants (%) (daisy (Bellis perennis); day 21): 2%; Daisy Necrosis (%) (daisy (Bellis perennis); day 23): 98%; Plot Area Covered by Daisy Plants (%) (daisy (Bellis perennis); day 30): 0.5%; Blackening of Bentgrass (Agrostis) Leaf Tips (0 to 9) ([2]; day 1): 0; Blackening of Bentgrass (Agrostis) Leaf Tips (0 to 9) ([2]; day 6): 0; Blackening of Bentgrass (Agrostis) Leaf Tips (0 to 9) ([2]; day 9): 0; Blackening of Bentgrass (Agrostis) Leaf Tips (0 to 9) ([2]; day 16): 2; Blackening of Bentgrass (Agrostis) Leaf Tips (0 to 9) ([2]; day 21): 0.5 0 to 9; Blackening of Bentgrass (Agrostis) Leaf Tips (0 to 9) ([2]; day 23): 0; Blackening of Bentgrass (Agrostis) Leaf Tips (0 to 9) ([2]; day 30): 0; Dandelion Plants (#/0.5 m^2) ([3]; 7 days after spraying, listed as FeHEDTA (0.15% Fe)): 19 #/0.5 m^2; Dandelion Plants (#/0.5 m^2) ([3]; 7 days after spraying, listed as FeHEDTA (0.20% Fe)): 24 #/0.5 m^2; numbers of dandelions, in words ([3]; Example 12, text): significantly reduced; Dandelion Plants (#/0.5 m^2) ([3]; day 0, listed as FeHEDTA (0.15% Fe)): 57 #/0.5 m^2; Dandelion Plants (#/0.5 m^2) ([3]; day 0, listed as FeHEDTA (0.20% Fe)): 84 #/0.5 m^2; Survival of Dandelion Plants (%) ([3]; listed as FeHEDTA (0.15% Fe)): 33%; Survival of Dandelion Plants (%) ([3]; listed as FeHEDTA (0.20% Fe)): 29%; Area Covered by Hairy Grass (%) (grass; day 0): 15%; Relative Grass Area (Start = 100%) (grass; day 0): 100%; Area Covered by Hairy Grass (%) (grass; day 6): 47%; Relative Grass Area (Start = 100%) (grass; day 6): 313%; Area Covered by Hairy Grass (%) (grass; day 8): 40%; Relative Grass Area (Start = 100%) (grass; day 8): 267%; Area Covered by Hairy Grass (%) (grass; day 15): 50%; Relative Grass Area (Start = 100%) (grass; day 15): 333%; Area Covered by Hairy Grass (%) (grass; day 18): 46%; Relative Grass Area (Start = 100%) (grass; day 18): 307%; A7 Phytotoxicity (%) against broadleaf plantain (broadleaf plantain; listed as FeHEDTA 0.1% Fe): 9%; A7 Phytotoxicity (%) against broadleaf plantain (broadleaf plantain; listed as FeHEDTA 0.2% Fe): 10%; A7 Phytotoxicity (%) against broadleaf plantain (broadleaf plantain; listed as FeHEDTA 0.4% Fe): 22%

— patent US20100273656A1, “COMPOSITION AND METHOD FOR SELECTIVE HERBICIDE” (priority 2002, published 2010)
